Results: US7435832B2, “Crystals including a malic acid salt of a 3-pyrrole substituted 2-indolinone, and compositions thereof” (Pharmacia & Upjohn Company, priority 2001, dated 2008)
Structures can show the parent of a compound that is named as a salt.

How the values were obtained:
Assay type in all cases: physicochemical
[1] = Solubility in water; conditions: in water at 25° C.
Protocol: The solubility of Crystal Form I of the L-malic acid salt of N-[2-(diethylamino)ethyl]-5-[(5-fluoro-1,2-dihydro-2-oxo-3H-indol-3-ylidene)methyl]-2,4-dimethyl-1H-pyrrole-3-carboxamide was determined to be 5 mg/mL in water at 25° C.

[2] = Dynamic moisture sorption gravimetry (DMSG), hygroscopicity; conditions: for Water absorbed (moisture sorption): across the 0-90% relative humidity range, 25° C.
Protocol: X-ray diffraction (XRD) patterns were measured on a Scintag X2 diffractometer (Thermo ARL, Ecublens, Switzerland) equipped with a theta-theta goniometer. Melting points were determined using a TA Instruments 2920 differential scanning calorimeter (TA Instruments, New Castle, Del.) with standard crimped pans and a heating rate of 10° C./minute. Hygroscopicity was assessed by dynamic moisture sorption gravimetry (DMSG) using a Controlled Atmosphere Microbalance (Pharmacia Corp., Kalamazoo, Mich.). All chemicals used are available from Aldrich Chemical Co., Milwaukee, Wis., unless otherwise specified. N-[2-(diethylamino)ethyl]-5-[(5-fluoro-1,2-dihydro-2-oxo-3H-indol-3-ylidene)methyl]-2,4-dimethyl-1H-pyrrole-3-carboxamide was prepared as the free base by a procedure similar to that described in Example 80 of PCT International Publication No. WO 01/60814 (Tang et al.).
Dynamic Moisture Sorption Gravimetry (DMSG). DMSG isotherms were collected on the variable temperature controlled atmosphere microbalance. Approximately 10 mg samples were used in the balance. Samples were run as received. The humidity was sequentially set between 0 and 90% relative humidity (RH) in 3% RH steps. The mass was then measured every two minutes. The RH was changed to the next value when the mass of the sample was stable to within 0.5 microgram in 480 seconds. A Visual Basic program was used to control the data collection and export the information to an Excel spreadsheet.

[3] = Solid state stability study of bulk crystals (HPLC analysis, PXRD); conditions: for Purity (Area %) / Total Impurities (Area %): HPLC
From the text: As referred to in the present application, “stable” in bulk drug stability tests means that at least about 97% by weight, preferably at least about 98% by weight, and more preferably at least about 99% by weight of the bulk drug remains unchanged after storage under the indicated conditions for the indicated time.
A solid state stability study of Crystal Form I of the L-malic acid salt of N-[2-(diethylamino)ethyl]-5-[(5-fluoro-1,2-dihydro-2-oxo-3H-indol-3-ylidene)methyl]-2,4-dimethyl-1H-pyrrole-3-carboxamide was also conducted (Table 2).

solubility [1] | Water absorbed (moisture sorption) [2] | Purity (Area %) ([3]; 2 weeks at 60° C./75% RH) | Total Impurities (Area %) ([3]; 2 weeks at 60° C./75% RH) | Purity (Area %) ([3]; 2 weeks at 60° C./ambient RH) | Total Impurities (Area %) ([3]; 2 weeks at 60° C./ambient RH) | Purity (Area %) ([3]; 2 weeks at 80° C./ambient RH) | Total Impurities (Area %) ([3]; 2 weeks at 80° C./ambient RH) | Purity (Area %) ([3]; 4 weeks at 60° C./75% RH) | Total Impurities (Area %) ([3]; 4 weeks at 60° C./75% RH) | Purity (Area %) ([3]; 4 weeks at 60° C./ambient RH) | Total Impurities (Area %) ([3]; 4 weeks at 60° C./ambient RH) | Purity (Area %) ([3]; 4 weeks at 80° C./ambient RH) | Total Impurities (Area %) ([3]; 4 weeks at 80° C./ambient RH) | Purity (Area %) ([3]; Initial) | Total Impurities (Area %) ([3]; Initial) | Degradation after aging ([3]; four weeks at 60° C./ambient RH, 60° C./75% RH and 80° C./ambient RH) | Change in crystal form by powder X-ray diffraction ([3]; two-week stability samples) | Water absorbed upon exposure to humidity ([2]; 80% relative humidity) | SMILES
5000 µg/mL | less than 0.5% | 99.6 Area % | 1.2 Area % | 98.2 Area % | 1.1 Area % | 99.5 Area % | 1.2 Area % | 100.1 Area % | 2.2 Area % | 100.4 Area % | 1.2 Area % | 98.0 Area % | 3.1 Area % | 99.7 Area % | 1.5 Area % | no significant degradation | no change in crystal form | – | CCN(CC)CCNC(=O)c1c(C)[nH]c(/C=C2\C(=O)Nc3ccc(F)cc32)c1C [Crystal Form I, L-malic acid salt of N-[2-(diethylamino)ethyl]-5-[(5-fluoro-1,2-dihydro-2-oxo-3H-indol-3-ylidene)methyl]-2,4-dimethyl-1H-pyrrole-3-carboxamide]
– | over 15% | – | – | – | – | – | – | – | – | – | – | – | – | – | – | – | – | at least 5 % by weight | CCN(CC)CCNC(=O)c1c(C)[nH]c(/C=C2\C(=O)Nc3ccc(F)cc32)c1C [Crystal Form II, L-malic acid salt of N-[2-(diethylamino)ethyl]-5-[(5-fluoro-1,2-dihydro-2-oxo-3H-indol-3-ylidene)methyl]-2,4-dimethyl-1H-pyrrole-3-carboxamide]
